Where a name gives a salt, the structure may show the parent alone.
Legend:
Assay in all cases: In vitro MIC, agar dilution
Type in all cases: cell-based
E. coli ATCC 25992 = conditions: Escherichia coli, ATCC25992, read-out: minimum inhibitory concentration (MIC)
Procedure: (§1) The compounds of the invention were evaluated against several β-lactamresistant (for example methicillin-resistant, vancomycin resistant, and/or ampicillin-resistant) bacteria strains by determining the minimum inhibitory concentration (MIC, μg/ml) of each compound with respect to each strain. The MIC, the lowest concentration of antibiotic which inhibits growth of the test organism, was determined by the agar dilution method.
(§2) To determine the MIC for bacterial isolates, the test compound was incorporated in a series of two-fold dilutions into liquified Mueller-Hinton agar. Upon solidification, a number of different bacterial strains were spot inoculated with a replicating device onto the agar surface.
(§3) Aliquots of antimicrobial agents were prepared in phosphate buffered saline (PBS) at pH 7.2. Tween 20 or DMSO was used as a solubilizing vehicle as needed. Standard methods of vortexing, sonicating and gentle heat were used to facilitate solubilizing the test agent. […] A 1.28 mg/mL stock solution was used with a subsequent highest working concentration of 128 μg/mL. Serial two-fold dilutions were done through ≤0.25 μg/mL. Each drug level was tested in duplicate. Two-fold drug dilutions were done in sterile 50 mL tubes with a final drug volume of 5 mL. Upon the addition of 45 mL of molten agar, a 10-fold dilution resulted. Two, 25 mL. plates were then poured into 15×150 mm square Petri plates with grids and allowed to harden.
(§4) A control plate with a reference drug, either cefotaxime, vancomycin or imipenem, was used as the positive growth control. Stock concentrations of reference antibiotics were prepared and frozen at -80° C. […] All test plates were used within 24 hours of preparation.
(§5) Satisfactory results were obtained where the inoculum contained about 10^4 colony forming units (cfu)±0.5 logs. Starting with pure cultures of the test isolates on agar plates, a few isolated colonies were transferred to a tube of nutrient broth and allowed to grow 4-6 hours at 35-36° C. to reach log-phase growth. Dropwise addition of the broth culture to PBS was done to match a 0.5 McFarland turbidity standard equal to 10^8 cfu/mL. This was further diluted ten-fold in PBS to reach a working inoculum concentration of 10^7 cfu/mL. When 1 μL of the working inoculum was applied to the agar surface a concentration of about 10^4 cfu per spot was obtained.
(§6) Disposable sterile 1 μL loops were used to inoculate test plates, with each isolate in a designated grid on the agar plate. An alternate method of inoculation involved the use of a replica plater, a device with 48 steel pins allowing the simultaneous inoculation of multiple isolates. After the spots had dried, the plates were incubated at 35-36° C. for 16-20 hours. Endpoints were assessed as the minimum inhibitory concentration (MIC) of antimicrobial agent.

E. faecalis ATCC 29212 = conditions: Enterococcus faecalis, ATCC29212, read-out: minimum inhibitory concentration (MIC)
Procedure: as §1, §2, §3, §4, §5, §6

E. faecalis VanB(Van^R) = conditions: Enterococcus faecalis, read-out: minimum inhibitory concentration (MIC)
Procedure: as §1, §2, §3, §4, §5, §6

E. faecium A491(Amp^R) = conditions: Enterococcus faecium, read-out: minimum inhibitory concentration (MIC)
Procedure: as §1, §2, §3, §4, §5, §6

E. faecium ATCC 35667 = conditions: Enterococcus faecium, ATCC35667, read-out: minimum inhibitory concentration (MIC)
Procedure: as §1, §2, §3, §4, §5, §6

E. faecium VanA(Van^R) = conditions: Enterococcus faecium, read-out: minimum inhibitory concentration (MIC)
Procedure: as §1, §2, §3, §4, §5, §6

P. aeruginosa ATCC 27853 = conditions: Pseudomonas aeruginosa, ATCC27853, read-out: minimum inhibitory concentration (MIC)
Procedure: as §1, §2, §3, §4, §5, §6

[1] = system: S. aureus 76(Meth^R)(lac^+); conditions: Staphylococcus aureus, read-out: minimum inhibitory concentration (MIC)
Procedure: as §1, §2, §3, §4, §5, §6

[2] = system: S. aureus ATCC 13709(Meth^S); conditions: Staphylococcus aureus, ATCC13709, S. aureus ATCC 13709(Meth^S); read-out: minimum inhibitory concentration (MIC)
Procedure: as §1, §2, §3, §4, §5, §6

S. aureus ATCC 29213 = conditions: Staphylococcus aureus, ATCC29213, read-out: minimum inhibitory concentration (MIC)
Procedure: as §1, §2, §3, §4, §5, §6

[3] = system: S. aureus ATCC 33593(Meth^R); conditions: Staphylococcus aureus, ATCC33593, read-out: minimum inhibitory concentration (MIC)
Procedure: as §1, §2, §3, §4, §5, §6

[4] = system: S. aureus PC1(Meth^S)(lac^+); conditions: Staphylococcus aureus, read-out: minimum inhibitory concentration (MIC)
Procedure: as §1, §2, §3, §4, §5, §6

[5] = system: S. aureus Spain #356(Meth^R); conditions: Staphylococcus aureus, read-out: minimum inhibitory concentration (MIC)
Procedure: as §1, §2, §3, §4, §5, §6

[6] = system: S. haemolyticus 05(Meth^R); conditions: Staphylococcus haemolyticus, read-out: minimum inhibitory concentration (MIC)
Procedure: as §1, §2, §3, §4, §5, §6

[7] = system: S. aureus Col(Meth^R)(lac^-); conditions: Staphylococcus aureus, read-out: minimum inhibitory concentration (MIC)
Procedure: as §1, §2, §3, §4, §5, §6
The S. aureus Col strain is a high-level PBP2a producer, whereas S. aureus Col 8A, its isogenic partner, lacks PBP2a.

Row | Compound | MIC (E. coli ATCC 25992) [µg/mL] | MIC (E. faecalis ATCC 29212) [µg/mL] | MIC (E. faecalis VanB(Van^R)) [µg/mL] | MIC (E. faecium A491(Amp^R)) [µg/mL] | MIC (E. faecium ATCC 35667) [µg/mL] | MIC (E. faecium VanA(Van^R)) [µg/mL] | MIC (P. aeruginosa ATCC 27853) [µg/mL] | MIC [1] [µg/mL] | MIC [2] [µg/mL] | MIC (S. aureus ATCC 29213) [µg/mL] | MIC [3] [µg/mL] | MIC [4] [µg/mL] | MIC [5] [µg/mL] | MIC [6] [µg/mL] | MIC [7] [µg/mL]
1 | NCCSc1cnccc1SC1=C(C(=O)O)N2C(=O)[C@@H](NC(=O)/C(=N\O)c3csc(N)n3)[C@H]2SC1 [Cmpd 20, (7R)-7-[(Z)-2-(aminothiazol-4-yl)-2-(hydroxyimino)acetamido]-3-(3-aminoethylthiopyrid-4-ylthio)-3-cephem-4-carboxylate, trifluoroacetic acid salt] | 4 | 1 | 0.5 | > 32 | 1 | 2 | > 32 | 4 | 0.5 | 0.5 | 2 | 0.5 | 4 | 4 | 2
2 | NCCSCc1cnccc1SC1=C(C(=O)O)N2C(=O)[C@@H](NC(=O)/C(=N\OCCF)c3csc(N)n3)[C@H]2SC1 [Cmpd 23, (7R)-7-[(Z)-2-(aminothiazol-4-yl)-2-(2-fluoroethoxyimino)acetamido]-3-(3-aminoethylthiomethylpyrid-4-ylthio)-3-cephem-4-carboxylate, trifluoroacetic acid salt] | 2 | 0.5 | 1 | > 32 | 2 | 4 | > 32 | 4 | 0.5 | 1 | 4 | 0.5 | 4 | 4 | 2
3 | NCC(=O)NCCSCc1cnccc1SC1=C(C(=O)O)N2C(=O)[C@@H](NC(=O)/C(=N\O)c3csc(N)n3)[C@H]2SC1 [Cmpd 24, (7R)-7-[(Z)-2-(aminothiazol-4-yl)-2-(hydroxyimino)acetamido]-3-[3-(glycyl)aminoethylthiomethylpyrid-4-ylthio]-3-cephem-4-carboxylate, trifluoroacetic acid salt] | 8 | 0.25 | 0.5 | > 32 | 2 | 4 | > 32 | 8 | 1 | 1 | 4 | 1 | 4 | 8 | 8
4 | N=CNCCSCc1cnccc1SC1=C(C(=O)O)N2C(=O)[C@@H](NC(=O)/C(=N\O)c3nc(N)sc3Cl)[C@H]2SC1 [Cmpd 31, (7R)-7-[(Z)-2-(2-amino-5-chlorothiazol-4-yl)-2-(hydroxyimino)acetamido]-3-(3-(N-formamidinoyl)aminoethylthiomethylpyrid-4-ylthio)-3-cephem-4-carboxylate, trifluoroacetic acid salt] | 8 | 0.5 | 0.25 | 8 | 0.5 | 1 | > 32 | 2 | 0.25 | 0.25 | 2 | 0.25 | 2 | 4 | 2
5 | CC(N)CSCc1cnccc1SC1=C(C(=O)O)N2C(=O)[C@@H](NC(=O)/C(=N\O)c3nc(N)sc3Cl)[C@H]2SC1 (stereo partly drawn) [Cmpd 36, (7R)-7-[(Z)-2-(2-amino-5-chlorothiazol-4-yl)-2-(hydroxyimino)acetamido]-3-(3-(2-aminoprop-1-ylthiomethyl)pyrid-4-ylthio)-3-cephem-4-carboxylate, trifluoroacetic acid salt] | 16 | 0.25 | 0.13 | 8 | 0.5 | 1 | > 32 | 2 | 0.25 | 0.5 | 1 | 0.25 | 1 | 2 | 1
6 | CNCCSCc1cnccc1SC1=C(C(=O)O)N2C(=O)[C@@H](NC(=O)/C(=N\O)c3nc(N)sc3Cl)[C@H]2SC1 [Cmpd 41, (7R)-7-[(Z)-2-(2-amino-5-chlorothiazol-4-yl)-2-(hydroxyimino)acetamido]-3-(3-(2-N-methylaminoethylthiomethyl)pyrid-4-ylthio)-3-cephem-4-carboxylate, trifluoroacetic acid salt] | 4 | ≤ 0.06 | ≤ 0.06 | 8 | 0.25 | 1 | 32 | 1 | 0.13 | 0.13 | 1 | 0.25 | 1 | 1 | 1
7 | NCC#CCc1cnccc1SC1=C(C(=O)O)N2C(=O)[C@@H](NC(=O)/C(=N\O)c3nc(N)sc3Cl)[C@H]2SC1 [Cmpd 48, (7R)-7-[(Z)-2-(2-amino-5-chlorothiazol-4-yl)-2-(hydroxyimino)acetamido]-3-(3-(4-amino-2-butyn-1-yl)pyrid-4-ylthio)-3-cephem-4-carboxylate, trifluoroacetic acid salt] | 4 | 0.25 | 0.5 | 32 | 1 | 4 | > 32 | 8 | 0.25 | 0.5 | 4 | 0.5 | 8 | 16 | 4
8 | CC(N)COCc1cnccc1SC1=C(C(=O)O)N2C(=O)[C@@H](NC(=O)/C(=N\O)c3nc(N)sc3Cl)[C@H]2SC1 (stereo partly drawn) [Cmpd 49, (7R)-7-[(Z)-2-(2-amino-5-chlorothiazol-4-yl)-2-(hydroxyimino)acetamido]-3-(3-(2-aminopropyloxymethyl)pyrid-4-ylthio)-3-cephem-4-carboxylate, trifluoroacetic acid salt] | 8 | 0.13 | 0.13 | 16 | 1 | 2 | > 32 | 2 | 0.25 | 0.25 | 2 | 0.5 | 2 | 4 | 2
9 | NCCCSc1cnccc1SC1=C(C(=O)O)N2C(=O)[C@@H](NC(=O)/C(=N\O)c3nc(N)sc3Cl)[C@H]2SC1 [Cmpd 51, (7R)-7-[(Z)-2-(2-amino-5-chlorothiazol-4-yl)-2-(hydroxyimino)acetamido]-3-(3-(3-aminopropylthio)pyrid-4-ylthio)-3-cephem-4-carboxylate, trifluoroacetic acid salt] | 8 | 0.13 | 0.25 | 8 | 0.13 | 1 | > 32 | 4 | 0.5 | 0.25 | 2 | 0.5 | 2 | 2 | 2

From patent publication US6087355A, “Cephalosporin antibiotics” (Microcide Pharmaceuticals, Inc., priority 1996, dated 2000)
